The text below walks through data of ChEMBL document CHEMBL3120088, “Discovery of selective small molecule type III phosphatidylinositol 4-kinase alpha (PI4KIIIα) inhibitors as anti hepatitis C (HCV) agents” (J Med Chem, 2014).

SMILES strings stand for the structures. Where only a bound is given, the exact number is not on record here.

Assay [1] deals with Hepatitis C virus. The assay is described as follows: Antiviral activity against Hepatitis C virus genotype 1b expressed in ET cells after 48 hrs by luciferase reporter gene assay. Type of assay: functional, organism-based, Hepacivirus hominis. As to conditions: for IC50: Hepatitis C virus, genotype 1b, ET, 48 h. Background: In a reporter assay the amount or activity of a reporter protein is the signal.

The target of assay [2] is Phosphatidylinositol 4-kinase alpha (Homo sapiens, UniProt P42356). The assay is described as follows: Inhibition of GST-tagged PI4K-alpha (1 to 2044) (unknown origin) using D-myo-phosphatidylinositol as substrate preincubated for 30 mins followed by substrate addition measured after 180 mins by luminescence assay.
Assay [3] can be described thus: Inhibition of PI3Kalpha (1 to 1068)/6xHis-tagged p85 (1 to 724) (unknown origin) using diC8-PIP2 as substrate preincubated for 30 mins followed by substrate addition measured after 45 to 60 mins. More on the design: species or system Homo sapiens.
Assay [4] in a line: Inhibition of PI3Kbeta (1 to 1070)/6xHis-tagged p85 (1 to 724) (unknown origin) using diC8-PIP2 as substrate preincubated for 30 mins followed by substrate addition measured after 45 to 60 mins. More on the design: species or system Homo sapiens.
Assay [5] is described as follows: Inhibition of PI3Kdelta (1 to 1044)/6xHis-tagged p85 (1 to 724) (unknown origin) using diC8-PIP2 as substrate preincubated for 30 mins followed by substrate addition measured after 45 to 60 mins. More on the design: species or system Homo sapiens.
Assay [6] is described as follows: Inhibition of 6xHis-tagged PI4K-beta (13 to 828) 316 to 330 deletion mutant (unknown origin) using D-myo-phosphatidylinositol as substrate preincubated for 30 mins followed by substrate addition measured after 180 mins by luminescence assay. More on the design: species or system Homo sapiens.
In assay [7] the target is Phosphatidylinositol 4,5-bisphosphate 3-kinase catalytic subunit gamma isoform (Homo sapiens, UniProt P48736).
Description: Inhibition of PI3Kgamma (2 to 1102) (unknown origin) using diC8-PIP2 as substrate preincubated for 30 mins followed by substrate addition measured after 45 to 60 mins
Assay [8] concerns Hepatitis C virus. Briefly: Antiviral activity against Hepatitis C virus genotype 1a expressed in ET cells after 48 hrs by luciferase reporter gene assay. The following applies: et. Type of assay: functional, organism-based, Hepacivirus hominis, subtype 1a.

Phosphatidylinositol 4,5-bisphosphate 3-kinase catalytic subunit gamma isoform, sequence (P48736 whole entry, canonical isoform): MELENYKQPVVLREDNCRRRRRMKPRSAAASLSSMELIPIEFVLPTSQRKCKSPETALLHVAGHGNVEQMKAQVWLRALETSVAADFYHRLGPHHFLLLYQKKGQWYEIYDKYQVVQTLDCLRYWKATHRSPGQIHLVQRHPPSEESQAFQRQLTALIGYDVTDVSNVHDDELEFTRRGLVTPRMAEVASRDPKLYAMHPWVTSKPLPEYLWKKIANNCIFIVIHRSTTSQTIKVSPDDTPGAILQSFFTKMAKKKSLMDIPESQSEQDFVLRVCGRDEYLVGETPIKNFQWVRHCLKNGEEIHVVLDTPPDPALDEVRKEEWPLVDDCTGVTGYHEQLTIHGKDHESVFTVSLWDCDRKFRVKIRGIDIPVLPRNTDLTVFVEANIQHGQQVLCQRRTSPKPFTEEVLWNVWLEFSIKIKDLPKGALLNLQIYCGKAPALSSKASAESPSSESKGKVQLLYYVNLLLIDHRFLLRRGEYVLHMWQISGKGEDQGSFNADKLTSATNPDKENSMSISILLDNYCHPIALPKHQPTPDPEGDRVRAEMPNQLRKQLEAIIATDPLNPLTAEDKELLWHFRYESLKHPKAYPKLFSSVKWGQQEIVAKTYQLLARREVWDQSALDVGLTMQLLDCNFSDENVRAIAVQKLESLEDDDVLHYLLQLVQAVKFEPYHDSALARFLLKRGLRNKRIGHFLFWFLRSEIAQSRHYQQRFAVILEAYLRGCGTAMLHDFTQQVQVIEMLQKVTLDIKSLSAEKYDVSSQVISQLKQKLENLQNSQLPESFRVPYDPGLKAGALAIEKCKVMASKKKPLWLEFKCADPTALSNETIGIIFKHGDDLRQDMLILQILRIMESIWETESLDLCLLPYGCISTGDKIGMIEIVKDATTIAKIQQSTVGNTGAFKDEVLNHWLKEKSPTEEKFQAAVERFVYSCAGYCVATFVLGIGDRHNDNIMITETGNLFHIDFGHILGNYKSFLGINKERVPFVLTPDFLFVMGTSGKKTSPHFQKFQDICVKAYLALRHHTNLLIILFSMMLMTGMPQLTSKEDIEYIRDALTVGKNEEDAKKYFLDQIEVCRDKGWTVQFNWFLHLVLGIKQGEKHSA
Phosphatidylinositol 4-kinase alpha, sequence (P42356 whole entry): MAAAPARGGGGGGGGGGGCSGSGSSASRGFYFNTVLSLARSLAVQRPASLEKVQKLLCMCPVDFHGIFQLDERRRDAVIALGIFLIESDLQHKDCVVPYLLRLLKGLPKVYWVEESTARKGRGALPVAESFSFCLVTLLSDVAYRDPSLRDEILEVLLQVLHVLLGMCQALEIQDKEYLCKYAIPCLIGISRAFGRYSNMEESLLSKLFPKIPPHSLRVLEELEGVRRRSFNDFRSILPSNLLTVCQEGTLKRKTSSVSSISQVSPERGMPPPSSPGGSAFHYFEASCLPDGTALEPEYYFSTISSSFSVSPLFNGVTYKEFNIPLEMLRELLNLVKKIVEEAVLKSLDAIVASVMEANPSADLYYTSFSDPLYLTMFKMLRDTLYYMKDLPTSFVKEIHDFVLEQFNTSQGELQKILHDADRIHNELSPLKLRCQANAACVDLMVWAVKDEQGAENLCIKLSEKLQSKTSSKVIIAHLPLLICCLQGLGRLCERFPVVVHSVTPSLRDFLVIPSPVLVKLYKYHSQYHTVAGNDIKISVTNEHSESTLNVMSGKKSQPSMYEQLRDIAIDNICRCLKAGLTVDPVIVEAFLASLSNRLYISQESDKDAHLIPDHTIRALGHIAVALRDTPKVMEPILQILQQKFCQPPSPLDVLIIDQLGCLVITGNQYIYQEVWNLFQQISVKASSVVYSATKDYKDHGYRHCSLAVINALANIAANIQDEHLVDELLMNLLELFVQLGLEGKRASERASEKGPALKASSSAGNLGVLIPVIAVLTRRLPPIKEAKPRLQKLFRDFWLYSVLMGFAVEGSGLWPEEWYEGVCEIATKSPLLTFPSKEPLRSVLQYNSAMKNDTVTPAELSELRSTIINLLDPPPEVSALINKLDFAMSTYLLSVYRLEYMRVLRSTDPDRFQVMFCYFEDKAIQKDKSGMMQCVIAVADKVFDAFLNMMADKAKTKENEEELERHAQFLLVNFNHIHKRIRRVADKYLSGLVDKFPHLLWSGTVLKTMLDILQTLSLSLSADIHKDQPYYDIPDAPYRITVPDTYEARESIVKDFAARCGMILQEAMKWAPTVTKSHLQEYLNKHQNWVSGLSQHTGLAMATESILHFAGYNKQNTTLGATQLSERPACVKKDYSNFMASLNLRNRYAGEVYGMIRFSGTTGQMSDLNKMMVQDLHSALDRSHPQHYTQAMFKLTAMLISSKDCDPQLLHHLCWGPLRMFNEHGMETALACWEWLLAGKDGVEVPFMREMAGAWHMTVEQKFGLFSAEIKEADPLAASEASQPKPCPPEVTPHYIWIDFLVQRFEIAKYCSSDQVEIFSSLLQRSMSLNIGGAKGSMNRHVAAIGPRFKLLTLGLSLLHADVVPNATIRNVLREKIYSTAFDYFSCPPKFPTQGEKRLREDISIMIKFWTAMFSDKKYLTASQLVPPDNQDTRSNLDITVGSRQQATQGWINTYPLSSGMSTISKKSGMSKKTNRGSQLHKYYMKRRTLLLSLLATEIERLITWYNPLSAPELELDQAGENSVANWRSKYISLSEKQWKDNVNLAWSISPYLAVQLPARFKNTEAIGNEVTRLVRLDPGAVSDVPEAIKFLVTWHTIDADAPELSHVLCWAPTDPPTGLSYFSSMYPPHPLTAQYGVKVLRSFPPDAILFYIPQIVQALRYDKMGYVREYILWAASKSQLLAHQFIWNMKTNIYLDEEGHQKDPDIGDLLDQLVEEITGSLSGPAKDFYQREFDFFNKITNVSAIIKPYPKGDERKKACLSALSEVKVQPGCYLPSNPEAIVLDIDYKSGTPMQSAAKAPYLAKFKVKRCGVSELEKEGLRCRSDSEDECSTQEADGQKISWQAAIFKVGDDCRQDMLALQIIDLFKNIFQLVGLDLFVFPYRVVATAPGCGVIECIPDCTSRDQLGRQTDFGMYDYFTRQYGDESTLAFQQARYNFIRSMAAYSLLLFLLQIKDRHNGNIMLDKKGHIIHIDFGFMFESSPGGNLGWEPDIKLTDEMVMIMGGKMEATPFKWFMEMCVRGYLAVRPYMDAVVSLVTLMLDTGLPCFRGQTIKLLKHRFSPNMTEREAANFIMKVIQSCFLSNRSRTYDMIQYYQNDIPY

Usually IC50 stands for the point on the concentration scale where inhibition reaches its midpoint. The term pIC50 denotes −log10 of the IC50, conventionally taken in molar units. Low values mean a large IC50, high ones a small IC50. Turning to `COc1ncc(-c2cnc3nc(N)c(-c4ccccc4)cc3c2)cc1NS(=O)(=O)c1ccc(F)cc1F`, the values for the IC50 (with Hepatitis C virus [1]; in assay [2]; in assay [7]) were 0.126 µM, 0.631 µM and 6.31 µM, respectively. Besides, the negative logarithm of the IC50 (pIC50) came out at 5.3 in assay [3], 6 in assay [4], 5.7 in assay [5] and 5.4 in assay [6].
With `COc1ncc(-c2ccc3nc(N)n(-c4ccccc4)c(=O)c3c2)cc1NS(C)(=O)=O`, the figures for the IC50 (with Hepatitis C virus [1]; in assay [2]; in assay [7]) were 0.02 µM, 0.02 µM and 0.794 µM, respectively. The pIC50 was determined as 6.4 in assay [3], 5.3 in assay [4], 6.6 in assay [5] and 6.1 in assay [6].
For `COc1ncc(-c2ccc3nc(N)n(-c4ccccc4C)c(=O)c3c2)cc1S(=O)(=O)Nc1ccc(F)cc1F`, the figures for the IC50 (with Hepatitis C virus [1]; in assay [2]; in assay [7]) were 0.00251 µM, 0.01 µM and 0.316 µM, respectively. Also, the negative-log IC50 (pIC50) turned out to be 6.5 in assay [3], 5.7 in assay [4], 6.7 in assay [5] and 6.1 in assay [6].
Consider `Nc1ncc(-c2ccc3nc(N)n(-c4ccccc4)c(=O)c3c2)cc1NS(=O)(=O)c1ccc(F)cc1F`, for which the IC50 with Hepatitis C virus [1] was 0.0158 µM; in assay [2], 0.000794 µM. In addition, the pIC50 in assay [3] came out at 6.7; in assay [4] it was 5.3; in assay [5], 6.4; in assay [6], 7.5.
Regarding `COc1ncc(-c2ccc3nc(N)n(-c4ccc(C(F)(F)F)cc4)c(=O)c3c2)cc1S(=O)(=O)Nc1ccc(F)cc1F`, the IC50 with Hepatitis C virus [1] was 0.01 µM; in assay [2], 0.0501 µM; in assay [7], 0.398 µM. In addition, the pIC50 in assay [3] is on record as 6.1; in assay [4] it was 4.6; in assay [5] it was 6.4; in assay [6], 5.
Regarding `COc1ncc(-c2ccc3nc(N)n(C4CCOCC4)c(=O)c3c2)cc1S(=O)(=O)Nc1ccc(F)cc1F`, the IC50 with Hepatitis C virus [1] is 0.00398 µM; in assay [2] it was 0.01 µM; in assay [7] it was 0.501 µM. For the same compound, the pIC50 is recorded as 6.6 in assay [3], 5.4 in assay [4], 6.6 in assay [5] and 5.9 in assay [6].
Consider `COc1ncc(-c2ccc3nc(N)n(-c4cccc(C(F)(F)F)c4)c(=O)c3c2)cc1S(=O)(=O)Nc1ccc(F)cc1F`, for which the results for the IC50 (with Hepatitis C virus [1]; in assay [2]; in assay [7]) were 0.0794 µM, 0.0501 µM and 1.58 µM, respectively. Moreover, the pIC50 is given as 6 in assay [3], 5 in assay [4], 6 in assay [5] and 5.1 in assay [6].
Turning to `COc1ncc(-c2ccc3nc(N)n(-c4ccccc4C(F)(F)F)c(=O)c3c2)cc1S(=O)(=O)Nc1ccc(F)cc1F`, the pIC50 is 8.5 in the assay on Hepatitis C virus [1] (et); 5 in assay [4]; 7.7 in the assay on Hepatitis C virus [8]; 5.5 in assay [5]; 5.8 in assay [6]. The results for the IC50 in assay [2] and in assay [7] were 0.0158 µM and 3.16 µM, respectively.
Consider `COc1ncc(-c2cc3cc(-c4ccccc4)c(N)nc3cn2)cc1NS(=O)(=O)c1ccc(F)cc1F`, for which the IC50 is 0.158 µM in the assay with Hepatitis C virus [1], 0.2 µM in assay [2] and 1.26 µM in assay [7]. The negative-log IC50 (pIC50) in assay [3] is 5.7; in assay [4], 5.8; in assay [5], 6.2; in assay [6], 5.
With `COc1ncc(-c2ccc3nc(N)n(-c4ccccc4)c(=O)c3c2)cc1NS(=O)(=O)C(C)C`, the IC50 with Hepatitis C virus [1] is 0.0316 µM; in assay [2], 0.126 µM; in assay [7], 0.501 µM. Further, the pIC50 in assay [3] was found to be 6.4; in assay [4] it was 5.3; in assay [5], 6.7; in assay [6], 5.9.
For `COc1ncc(-c2ccc3nc(N)c(-c4ccccc4)cc3n2)cc1NS(=O)(=O)c1ccc(F)cc1F`, the values for the half-maximal inhibitory concentration (IC50) (in the assay on Hepatitis C virus [1]; in assay [2]; in assay [7]) were above 5.01 µM, 7.94 µM and 25.1 µM, respectively. Moreover, the pIC50 turned out to be 4.2 in assay [3], 4.2 in assay [4], 4.9 in assay [5] and 5 in assay [6].
Take `COc1ncc(-c2ccc3nc(N)c(-c4ccccc4)cc3c2)cc1NS(=O)(=O)c1ccc(F)cc1F`: the values for the IC50 (in the assay on Hepatitis C virus [1]; in assay [2]; in assay [7]) were 0.01 µM, 0.1 µM and 0.0631 µM, respectively. Further, the pIC50 in assay [3] came out at 6.5; in assay [4] it was 5.9; in assay [5], 6.9; in assay [6], 5.8.
Regarding `COc1ncc(-c2ccc3nc(N)n(-c4ccccc4)c(=O)c3c2)cc1NS(=O)(=O)c1cccc(C)c1`, the IC50 in the assay on Hepatitis C virus [1] was 0.00126 µM; in assay [2] it was 0.00398 µM; in assay [7], 0.0501 µM. For the same compound, the pIC50 in assay [3] is reported as 7.1; in assay [4], 6.3; in assay [5] it was 7.3; in assay [6], 6.4.
`COc1ncc(-c2ccc3nc(N)n(-c4ccccc4)c(=O)c3c2)cc1S(=O)(=O)Nc1ccc(F)cc1F`: the IC50 is 0.00501 µM with Hepatitis C virus [1], 0.00631 µM in assay [2] and 1.26 µM in assay [7]. In addition, the pIC50 in assay [3] was 6; in assay [4], 4.9; in assay [5] it was 6.3; in assay [6] it was 5.5.
`COc1ncc(-c2ccc3nc(N)c(-c4ccccc4)nc3c2)cc1NS(=O)(=O)c1ccc(F)cc1F`: the values for the IC50 (in the assay with Hepatitis C virus [1]; in assay [2]; in assay [7]) were 0.0158 µM, 0.00501 µM and 0.00794 µM, respectively. The pIC50 in assay [3] is given as 7.1; in assay [4], 6.7; in assay [5], 7.8; in assay [6], 6.9.
On to `COc1ncc(-c2ccc3nc(N)n(-c4ccccc4C(C)C)c(=O)c3c2)cc1S(=O)(=O)Nc1ccc(F)cc1F`, for which the IC50 was 0.00631 µM in the assay on Hepatitis C virus [1], 0.0316 µM in assay [2] and 1 µM in assay [7]. The negative-log IC50 (pIC50) is listed as 5.8 in assay [3], 4.8 in assay [4], 5.6 in assay [5] and 6 in assay [6].
On to `COc1ncc(-c2ccc3nc(N)n(-c4ccccc4)c(=O)c3c2)cc1NS(=O)(=O)c1ccccc1C`, for which the IC50 is 0.000398 µM in the assay on Hepatitis C virus [1], 0.001 µM in assay [2] and 0.0398 µM in assay [7]. The negative logarithm of the IC50 (pIC50) was found to be 7.2 in assay [3], 6.4 in assay [4], 7.6 in assay [5] and 6.8 in assay [6].
For the compound `COc1ncc(-c2ccc3nc(N)n(-c4ccccc4)c(=O)c3c2)cc1NS(=O)(=O)c1ccccc1`, the IC50 was 0.000501 µM in the assay with Hepatitis C virus [1] and 0.00251 µM in assay [2]. Besides, the negative-log IC50 (pIC50) in assay [3] was found to be 7.3; in assay [4] it was 6.3; in assay [5], 7.7; in assay [6] it was 6.7.
As to `COc1ncc(-c2ccc3nc(N)n(-c4ccccc4)c(=O)c3c2)cc1NS(=O)(=O)c1ccc(C#N)cc1`, the IC50 in the assay on Hepatitis C virus [1] is 0.000631 µM; in assay [2] it was 0.001 µM; in assay [7] it was 0.0501 µM. Moreover, the pIC50 in assay [3] was found to be 6.6; in assay [4], 6.3; in assay [5], 7.6; in assay [6] it was 7.5.
On to `COc1ncc(-c2ccc3ncnc(N4CCOCC4)c3c2)cc1NS(=O)(=O)c1ccc(F)cc1F`, for which the IC50 in assay [2] was 0.00158 µM; in assay [7] it was 0.00251 µM. Also, the pIC50 in assay [3] came to 8.9; in assay [4] it was 8.7; in assay [5], 8.9; in assay [6], 7.7.
Consider `COc1ncc(-c2ccc3nc(N)n(-c4ccccc4)c(=O)c3c2)cc1NS(=O)(=O)c1cccnc1`, for which the IC50 in the assay with Hepatitis C virus [1] was 0.001 µM; in assay [2], 0.000316 µM; in assay [7], 0.00631 µM. Besides, the pIC50 in assay [3] amounted to 8.4; in assay [4], 7; in assay [5], 8.5; in assay [6], 7.4.
With `COc1ncc(-c2ccc3nc(N)n(-c4ccccc4)c(=O)c3c2)cc1N(C)S(=O)(=O)c1ccc(F)cc1F`, the IC50 in the assay on Hepatitis C virus [1] is above 2 µM; in assay [2], 3.98 µM; in assay [7] it was 3.98 µM. Also, the pIC50 in assay [3] worked out at 5.5; in assay [4] it was 4.5; in assay [5], 4.8; in assay [6], 5.
Regarding `COc1ccc(-c2ccc3nc(N)n(-c4ccccc4)c(=O)c3c2)cc1NS(=O)(=O)c1ccc(F)cc1F`, the IC50 in the assay on Hepatitis C virus [1] was 0.0316 µM; in assay [2], 0.316 µM; in assay [7], 0.316 µM. Besides, the pIC50 turned out to be 5.8 in assay [3], 4 in assay [4], 5.4 in assay [5] and 6.8 in assay [6].
As for `COc1ncc(-c2ccc3nc(N)n(-c4ccccc4)c(=O)c3c2)cc1NS(=O)(=O)c1ccc(C)cc1`, the IC50 with Hepatitis C virus [1] is 0.00316 µM; in assay [2], 0.0158 µM. The pIC50 turned out to be 7.3 in assay [3], 5.6 in assay [4], 8 in assay [5] and 6.2 in assay [6].
Take `CCn1c(N)nc2ccc(-c3cnc(OC)c(S(=O)(=O)Nc4ccc(F)cc4F)c3)cc2c1=O`: the IC50 is 0.02 µM in the assay on Hepatitis C virus [1], 0.0398 µM in assay [2] and 0.158 µM in assay [7]. Also, the pIC50 was found to be 6.9 in assay [3], 6.4 in assay [4], 6.8 in assay [5] and 6 in assay [6].
